Laboratory results taken from ChEMBL document CHEMBL1149799, “Bioactive peroxides as potential therapeutic agents” (Eur J Med Chem, 2008).
pIC50: −log10 of the molar value. Values after ≈ are worked out from the molar mass of the structure shown.

Legend:
[1] = tested on: HCT-116; assay: Cytotoxicity against human HCT116 cells; assay type: functional, cell-based
[2] = tested on: A549; assay: Cytotoxicity against human A549 cells; assay type: functional, cell-based; conditions: Homo sapiens, A549
[3] = tested on: HT-29; assay: Cytotoxicity against human HT29 cells; assay type: functional, cell-based; conditions: Homo sapiens, HT-29
[4] = tested on: MDA-MB-231; assay: Cytotoxicity against human MDA-MB-231 cells; assay type: functional, cell-based
[5] = Cytotoxicity against human IGRO cells by soft agar assay; assay type: functional
[6] = tested on: BT-549; assay: Cytotoxicity against human BT549 cells by soft agar assay; assay type: functional
[7] = tested on: HL-60; assay: Cytotoxicity against human HL60 cells by soft agar assay; assay type: functional
[8] = tested on: MOLT-4; assay: Cytotoxicity against human MOLT4 cells by soft agar assay; assay type: functional
[9] = tested on: A549; assay: Cytotoxicity against human A549 cells by soft agar assay; assay type: functional
[10] = tested on: KM12; assay: Cytotoxicity against human KM12 cells by soft agar assay; assay type: functional
[11] = Cytotoxicity against human LOX cells by soft agar assay; assay type: functional
[12] = tested on: 786-0; assay: Cytotoxicity against human renal 7860 cells by soft agar assay; assay type: functional
[13] = tested on: P388; assay: Cytotoxicity against mouse P388 cells at 0.05 ug/ml; assay type: functional
[14] = tested on: L1210; assay: Cytotoxicity against mouse L1210 cells; assay type: functional, cell-based; conditions: Mus musculus, L1210
[15] = tested on: KB; assay: Cytotoxicity against human KB cells; assay type: functional, cell-based; conditions: Homo sapiens, KB
[16] = tested on: HeLa; assay: Cytotoxicity against human HeLa cells; assay type: functional, cell-based
[17] = tested on: P388; assay: Cytotoxicity against mouse P388 cells; assay type: functional, cell-based; conditions: Mus musculus, P388
[18] = tested on: DU-145; assay: Cytotoxicity against human DU145 cells; assay type: functional, cell-based; conditions: Homo sapiens, DU-145
[19] = Cytotoxicity against human MEL28 cells; conditions: SK-MEL-28

`CC(CCCCCCCCc1ccccc1)CC(C)C[C@@]1(C)C[C@](C)(CC(=O)O)OO1` (stereo partly specified) [EPIPLAKINIC ACID G] showed a pIC50 [1] of 6.80.
For `CC/C=C/C(CC)CC(C)C[C@]1(CC)C[C@H](CC)[C@H](CC(=O)OC)OO1` (stereo partly specified), the pIC50 [2] was 5.17, the pIC50 [3] was 4.89 and the pIC50 [4] was 5.39.
`C=C1CCC[C@H]2[C@](C)(CC[C@]3(C)CC[C@H]([C@@H](C)C(=O)O)OO3)[C@@H](C)CC[C@]12C` [SIGMOSCEPTRELLIN A] showed a GI50 [5] of 0.12 µM and a GI50 [6] of 0.96 µM.
`CCCCC(CC)CC(C)C[C@]1(CC)C[C@H](CC)[C@H](CC(=O)O)OO1` (stereo partly specified) [PLAKORITIDE Q] gave a pIC50 [2] of 5.44, a pIC50 [3] of 5.41 and a pIC50 [4] of 5.05.
`CC1=C(CC/C(C)=C/CC[C@@]2(C)CC[C@@H]([C@H](C)C(=O)O)OO2)C(C)(C)CCC1` [EPIMUQUBILIN A] showed a GI50 [7] of over 5 µM, a GI50 [8] of over 5 µM and a GI50 [9] of over 5 µM. It also gave a GI50 [10] of over 5 µM, a GI50 [11] of over 5 µM and a GI50 [5] of over 5 µM. The GI50 [12] was over 5 µM and the GI50 [6] was over 5 µM.
With `C/C=C/C=C/CCCCCCC[C@]1(OC)C=C[C@H](CC(=O)OC)OO1` the inhibition at 0.05 µg/mL [13] was 50%.
With `C=C1CCCC(C)(C)C1(O)CC/C(C)=C/CC[C@]1(C)CC[C@H]([C@@H](C)C(=O)OC)OO1` (stereo partly specified) [EPIMUQUBILIN B] the GI50 [7] was over 5 µM, the GI50 [8] was over 5 µM and the GI50 [9] was over 5 µM. The GI50 [10] was over 5 µM, the GI50 [5] was over 5 µM and the GI50 [12] was over 5 µM. For the same compound, the GI50 [6] was over 5 µM.
With `C/C=C/C=C/CCCCCCCCC[C@]1(OC)C=C[C@H](CC(=O)OC)OO1` the inhibition at 0.05 µg/mL [13] was 50%.
Work on `C=C1CCCC(C)(C)C1CC[C@]1(C)CC[C@H]([C@@H](C)C(=O)OC)OO1` (stereo partly specified) [NUAPAPUIN B] yielded a GI50 [8] of over 5 µM, a GI50 [11] of 0.47 µM and a GI50 [5] of 0.5 µM.
`C=C1CCCC(C)(C)C1CC[C@]1(C)CC[C@@H]([C@@H](C)C(=O)O)OO1` (stereo partly specified) [EPINUAPAPUIN B] gave a GI50 [8] of over 5 µM, a GI50 [9] of over 5 µM and a GI50 [10] of over 5 µM. It also gave a GI50 [5] of 1.73 µM, a GI50 [12] of over 5 µM and a GI50 [6] of over 5 µM.
Work on `CC(CCCCCCCCc1ccccc1)CC(C)C[C@]1(C)C[C@](C)(CC(=O)O)OO1` (stereo partly specified) [EPIPLAKINIC ACID H] yielded a pIC50 [1] of 6.41.
Compound `CCCCC(CC)CC(C)C[C@]1(CC)C[C@H](CC)[C@H](CC(=O)OC)OO1` (stereo partly specified) [PLAKORITIDE Q ME] has a pIC50 [2] of 5.11, a pIC50 [3] of 4.89 and a pIC50 [4] of 4.74.
Compound `C=C1CCCC(C)(C)C1CC[C@@]1(C)CC[C@H]([C@@H](C)C(=O)O)OO1` (stereo partly specified) [NAPAPUIN B] has a GI50 [11] of 0.25 µM and a GI50 [5] of 0.63 µM.
With `C/C=C/CCCCCCCCC[C@]1(OC)C=C[C@H](CC(=O)OC)OO1` the inhibition at 0.05 µg/mL [13] was 50%.
Compound `CCCCCCCCCCCCCCC[C@@]1(OC)C=C[C@H](CC(=O)OC)OO1` [PLAKORIN] has an IC50 [14] of 0.85 µg/mL (≈ 2.13 µM), an IC50 [15] of 1.8 µg/mL (≈ 4.52 µM) and an inhibition at 0.05 µg/mL [13] of 50%.
Work on `C=C1CCC[C@@H]2[C@@H](CC[C@@]3(C)CC[C@H]([C@H](C)C(=O)O)OO3)[C@H](C)CC[C@@]12C` [SIGMOSCEPTRELLIN B] yielded a GI50 [7] of 0.14 µM, a GI50 [8] of 0.84 µM and a GI50 [9] of 0.94 µM. The GI50 [10] was 0.95 µM, the GI50 [11] was 0.16 µM and the GI50 [5] was 0.1 µM. For the same compound, the GI50 [12] was 0.5 µM and the GI50 [6] was 0.96 µM.
With `CCCC(CC)CC(C)C[C@]1(CC)C[C@H](CC)[C@H](CC(=O)OC)OO1` (stereo partly specified) the pIC50 [2] was 4.85, the pIC50 [3] was 4.91 and the pIC50 [4] was 4.61.
Work on `C[C@H](C(=O)O)[C@@H]1CC[C@@](C)(CC[C@@]2(C)C3=CCCC(C)(C)[C@@H]3CC[C@H]2C)OO1` [MYCAPEROXIDE H] yielded an IC50 [16] of 0.8 µg/mL (≈ 2.04 µM).
Compound `C=C[C@@H](O)C#CC#C/C=C/C(CCCCCCC)OO` (stereo partly specified) [GINSENOYNE K] has an IC50 [14] of 1.8 µg/mL (≈ 6.51 µM) and an IC50 [16] of 10.5 µg/mL (≈ 38 µM).
Compound `C=CCCC/C=C/C=C\CCCCCCCC[C@H]1CC[C@@H]([C@H]2CC[C@@H](CC(=O)O)OO2)O1` [STOLONOXIDE B] has an IC50 [2] of 0.1 µg/mL, an IC50 [17] of 0.05 µg/mL (≈ 0.111 µM) and an IC50 [3] of 0.1 µg/mL. The IC50 [18] was 0.1 µg/mL (≈ 0.223 µM) and the IC50 [19] was 0.1 µg/mL (≈ 0.223 µM).
Work on `C=C1CCCC(C)(C)C1(O)CC/C(C)=C/CC[C@]1(C)CC[C@@H]([C@@H](C)C(=O)OC)OO1` (stereo partly specified) [MUQUBILIN B] yielded a GI50 [7] of over 5 µM, a GI50 [8] of over 5 µM and a GI50 [9] of over 5 µM. It also gave a GI50 [10] of over 5 µM, a GI50 [11] of over 5 µM and a GI50 [5] of 2.42 µM. It also gave a GI50 [12] of over 5 µM.
